Literature values in patent US11066448B2, “Zika as a cell penetrating peptide for delivery to the brain” (priority 2018, dated 2021).

Tests used:
[1] = enzymatic hydrolysis, doxorubicin release
[2] = human plasma; MMAE linked

Row | Substance | half-life of cleavage [1] [min] | stability relative to Val-Cit [2] | stability relative to hydrazone linker [2]
1 | Val-Lys | 9 | – | –
2 | Phe-Lys | 8 | substantially less stable | –
3 | valine-citrulline [Val-Cit] | 240 | – | over 100 times
